Results on 5 compounds are retold here after article PMC8997913, “Lichen Secondary Metabolites Inhibit the Wnt/β-Catenin Pathway in Glioblastoma Cells and Improve the Anticancer Effects of Temozolomide” (Cells, 2022).

“Also recorded” adds a separate entry of the source. Bounds are passed on as bounds.

The nature of data set [1]: Parallel artificial membrane permeability assay for the blood-brain barrier (PAMPA-BBB). The format is in vitro ADME. The following applies: pH 7.4, 4 h, 37 °C; for Papp at 4 h, 24.75 µg/mL: mean ± SEM, n = 3, Pe > 1.5 high, < 1.5 low permeation predicted, read-out: Pe × 10^−6. As for the experimental part:
The parallel artificial membrane permeability assay (PAMPA) for the blood-brain barrier (BBB) (Pion Inc., Billerica, MA, USA) was used to analyze whether the lichen secondary metabolites tested in this study were able to cross the BBB. The stock solutions (5 mg/mL) of tested compounds were prepared using DMSO. Next, the donor solution (24.75 μg/mL) using Prisma buffer (pH = 7.4; Prisma HT, Pion Inc., Billerica, MA, USA) were made. Firstly, 180 μL of the donor solution were added to the donor wells. Then the filter membranes were coated with 5 μL BBB-1 lipid solution (Pion Inc., Billerica, MA, USA) and the acceptor wells were filled with 200 μL BSB (Brain Sink Buffer, Pion Inc., Billerica, MA, USA). The plates were sandwiched together and incubated for 4 h at 37 °C (Thermo Scientific MaxQ 4450, Waltham, MA, USA). The results were determined by spectroscopic analysis (Multiskan GO microplate reader, Waltham, MA, USA), with the appropriate wavelength for a given compound (240 nm for […] salazinic acid, 250 nm for atranorin and squamatic acid, 263 nm for physodic acid, and 270 nm for lecanoric acid). […] Pe is the effective permeability coefficient (cm/s), VD-donor volume, VA-acceptor volume, Ceq-equilibrium concentration, Ceq=CD×VD+CA×VA/VD+VA , S-membrane area, and t-incubation time (in seconds). […] Samples were analyzed in triplicate, and the average was reported.

The subject of another data set is U-138 MG cells. In words: MTT test, U-138 MG. It is filed as cell-based, human. The conditions noted are these: 48 h; for IC50: Homo sapiens, U138-MG, three independent experiments, read-out: IC50 [uM] ± SEM U-138 MG. As to the method: (§1) Three human GBM cell lines were used in this study, i.e., A-172 (ATCC-CRL-1620), T98G (92090213), and U-138 MG (ATCC-HTB-16). The A-172 and U-138 MG cell lines were purchased from the American Type Culture Collection (ATCC), whereas the T98G cell line was obtained from the European Collection of Authenticated Cell Cultures (ECACC). It has been confirmed by us that O^6-methylguanine-DNA methyltransferase (MGMT), the key factor determining the response to alkylating agents, such as TMZ, is expressed in T98G and U-138 MG cells, whereas in A-172 the expression of MGMT is silenced by promoter methylation. Therefore, the cell lines differ in terms of TMZ sensitivity; A-172 is regarded as TMZ sensitive, whereas T98G and U-138 MG are TMZ resistant.
(§2) The cells were grown as monolayers (2D cell culture) in the recommended media: A-172 were grown in the ATCC-formulated DMEM (Merck, Darmstadt, Germany), whereas T98G and U-138 MG cell lines were grown in the ATCC-formulated EMEM (Merck, Darmstadt, Germany). These media were supplemented with FBS (Biowest, Nuaillé, France) to a final concentration of 10%, as well as antibiotics (penicillin and streptomycin) (Merck, Darmstadt, Germany) to the final concentrations of 1%. For the experiments, the amount of FBS was reduced to 5%. The medium for the T98G cell line was supplemented with 2 mM glutamine, 1% nonessential amino acids, and 1% sodium pyruvate (all purchased from Merck, Darmstadt, Germany).
(§3) In order to analyze the cytotoxicity of the analyzed lichen secondary metabolites, as well as to establish the appropriate concentrations for further analysis (allowing the survival of >70% of cells), we performed the MTT test. The procedure of the test was described previously. Briefly, the cells (10,000 cells per well) were seeded on the 96-well plates and left for 24 h. Afterwards, the analyzed compounds in the concentration range of 1 µM up to 100 µM were added to the cells and left for 48 h incubation. DMSO treated cells served as control. After the above-mentioned time, the cells were washed twice with warm PBS and incubated for 3 h in the presence of a fresh medium containing MTT salt (0.5 mg/mL). Then the formazan crystals were dissolved in acidic isopropanol. The absorbance was measured at 570 and 690 nm on a Tecan Infinite M200 microplate reader (Grödig, Austria). The experiments were repeated at least three times.

Data set [2] relates to T98G cells. Put plainly: Apoptosis, caspase-3/7 and 7-AAD flow cytometry, T98G. The format is cell-based, human. The conditions noted are these: 48 h, topotecan 100 nM. As to the method: Based on the MTT test, the lichen secondary metabolite concentrations allowing the survival of more than 70% of cells were chosen for the subsequent experiments. The compounds were added as follows: A-172 cells—atranorin 25 µM, caperatic acid 50 µM, physodic acid 25 µM, squamatic acid 25 µM, salazinic acid 50 µM, and lecanoric acid 100 µM; T98G cells—atranorin 50 µM, caperatic acid 100 µM, physodic acid 25 µM, squamatic acid 50 µM, salazinic acid 100 µM, and lecanoric acid 100 µM; U-138 MG cells—atranorin 25 µM, caperatic acid 50 µM, physodic acid 25 µM, squamatic acid 50 µM, salazinic acid 50 µM, and lecanoric acid 100 µM. As far as the TMZ treatment is concerned, it was added in the concentrations depending on the MGMT expression and methylation status, i.e., TMZ 30 µM was added to the A-172 cell line, and TMZ 100 µM was added to both the T98G and U-138 MG cell lines. In the case of the 2D culture, the cells were treated with the compounds 24 h after seeding, whereas, in regard to 3D culture, 5 days were needed to form spheroids. All subsequent analyses were performed 48 h after treatment.
The fluorescent-based analysis of apoptosis using Muse® Caspase-3/7 Kit was performed in order to analyze the percentage of live, early, and late apoptotic; total apoptotic; and dead cells in A-172, T98G, and U-138 MG GBM cells treated with lichen secondary metabolites. The principle of the method relies on the measurement of the activity of executioner caspases, i.e., caspase-3 and caspase-7, as well as analyzing the integrity of the cell membrane with the use of a dead cell marker 7-AAD. Cell seeding and treatment followed the same protocol as for cell cycle or ROS generation analysis, while the subsequent procedures were performed according to the manufacturer’s recommendations.
(In general: In flow cytometry, cells or beads pass a laser one at a time.)

In a further data set the test system is A-172 cells. In words: MTT test, A-172. The format is cell-based, human. The conditions noted are these: for number of living cells: A-172, 1–100 µM; for IC50: A 172, 48 h, three independent experiments, read-out: IC50 [uM] ± SEM A-172. As for the experimental part:
as §1, §2, §3

Data set [3] has as its system T98G cells. Put plainly: MTT test, T98G. The format is cell-based. The following applies: Homo sapiens, 48 h, three independent experiments, read-out: IC50 [uM] ± SEM T98G. As to the method: as §1, §2, §3
For orientation: Formazan colour is commonly taken as a measure of viable cells.

For the compound `Cc1cc(O)c(C=O)c2c1C(=O)Oc1c(CO)c(O)c3c(c1O2)C(O)OC3=O` (centres unmarked) [Salazinic acid], in data set [1], the “Pe × 10^−6 (cm/s), class” value is “np (np—classified as non-permeable (i.e., Pe < 0.5 × 10^−6 cm/s))”. In addition, the IC50 in the data set on U-138 MG cells is more than 100 µM. Moreover, the “number of viable cells” value in the data set on U-138 MG cells (U-138 MG, 50 µM) is recorded as “significantly reduced the number of viable cells”. For the same compound, in the data set with T98G cells [2], the “number of apoptotic cells vs control” value is recorded as “significant increase; also recorded: induced apoptosis”.

On to `COc1cc(C)c(C(=O)Oc2cc(C)c(C(=O)O)c(O)c2C)c(O)c1C(=O)O` [Squamatic acid], for which, in data set [1], the Papp at 4 h, 24.75 µg/mL was 0.5 ± 0.1 ×10⁻⁶ cm/s. The “number of living cells” value in the data set on A-172 cells (48 h) was “reduced the number of living cells in the whole analyzed concentration range”. The IC50 in the data set with A-172 cells (Homo sapiens) is 84.9 ± 3.62 µM; in the data set on T98G cells [3], more than 100 µM; in the data set on U-138 MG cells, more than 100 µM. In the data set with T98G cells [2], the “number of apoptotic cells vs control” value is given as “significant increase; also recorded: induced apoptosis”.

In the case of `CCCCCCCCCCCCCCC(C(=O)O)C(O)(CC(=O)OC)C(=O)O` (centres unmarked) [Caperatic acid], the Papp at 4 h, 24.75 µg/mL in data set [1] is 5.2 ± 0.1 ×10⁻⁶ cm/s. Also, the IC50 in the data set with A-172 cells (Homo sapiens) was 80.1 ± 1.88 µM; with T98G cells [3], more than 100 µM; in the data set on U-138 MG cells it was more than 100 µM. Also, the viability at 100 µM in the data set on A-172 cells (Homo sapiens, A-172, highest tested concentration (100 µM), 48 h) was determined as 11.7 ± 5.51%.

On to `Cc1cc(OC(=O)c2c(C)cc(O)cc2O)cc(O)c1C(=O)O` [Lecanoric acid], for which the Papp at 4 h, 24.75 µg/mL in data set [1] was 1.7 ± 0.2 ×10⁻⁶ cm/s. In addition, the cells killed in the data set with A-172 cells (A-172, 100 µM, 48 h) is on record as ~ 30%. The IC50 in the data set on A-172 cells (Homo sapiens), in the data set on T98G cells [3] and in the data set on U-138 MG cells was more than 100 µM each time. In the data set with T98G cells [2], the “number of apoptotic cells vs control” value is recorded as “significant increase; also recorded: induced apoptosis”.

On to `COC(=O)c1c(C)cc(OC(=O)c2c(C)cc(O)c(C=O)c2O)c(C)c1O` [Atranorin], for which the Papp at 4 h, 24.75 µg/mL in data set [1] was 2.2 ± 0.1 ×10⁻⁶ cm/s. In addition, in the data set with A-172 cells (48 h), the “number of living cells” value was “reduced the number of living cells in the whole analyzed concentration range”. Further, the half-inhibitory concentration (IC50) amounted to 90.9 ± 3.7 µM with A-172 cells (Homo sapiens), 98.6 ± 7.8 µM in the data set with T98G cells [3] and 47.8 ± 2.16 µM in the data set on U-138 MG cells.

The term IC50 denotes the concentration that gives 50% inhibition. As usually defined, the viability is the share of living cells, or the viability signal relative to a control. Read a low viability as more harm to the cells.
